Data on 1 compound can be found in ChEMBL document CHEMBL1147315, “A new spermatostatic glycoside from the soft coral Sinularia crispa” (J Nat Prod, 1989).

The assay concerns Spermatozoa. Briefly: Spermatostatic activity in rat cauda epididymal spermatozoa assessed as motility effect at 0.5 mg/mL for 30 mins by microscopic method. Type of assay: functional, cell-based.

Molecules are shown by their SMILES. Active and inactive are the calls of the source. The calls are words filed in the database; no cut-off is given here.

Regarding `C=C(CC[C@@H](C)[C@H]1[C@@H](O)C[C@H]2[C@@H]3[C@@H](O)C=C4C[C@@H](O[C@@H]5O[C@@H](C)[C@@H](OC(C)=O)[C@@H](O)[C@@H]5O)CC[C@]4(C)[C@H]3CC[C@]12C)C(C)C`, the result was Active.
